Measurements reported in ChEMBL document CHEMBL3400149, “Discovery of novel spiro 1,3,4-thiadiazolines as potent, orally bioavailable and brain penetrant KSP inhibitors” (Bioorg Med Chem, 2015).
Each block holds one compound with its values, some of them ahead of it. The source made the active and inactive calls. The rule behind the calls is not given here.

Columns and labels:
[1] = Volume of distribution at steady state in Sprague-Dawley rat at 1 mg/kg, iv; type: ADME, organism-based; set-up: dose 1 mg/kg, route intravenous; settings: in vivo, read-out: Vdss
[2] = Oral bioavailability in Sprague-Dawley rat at 50 mg/kg; type: ADME, organism-based; settings: in vivo
[3] = AUC in beagle dog at 1 mg/kg, iv; type: ADME, organism-based, Canis lupus familiaris; set-up: dose 1 mg/kg, route intravenous; settings: plasma
[4] = Clearance in CD1 mouse at 5 mg/kg, iv; type: ADME, organism-based; set-up: dose 5 mg/kg, route intravenous; settings: in vivo
[5] = Half life in CD1 mouse at 5 mg/kg, iv; type: ADME, organism-based; set-up: dose 5 mg/kg, route intravenous; settings: in vivo
[6] = Half life in beagle dog at 1 mg/kg, iv; type: ADME, organism-based, Canis lupus familiaris; set-up: dose 1 mg/kg, route intravenous; settings: in vivo
[7] = AUC in Sprague-Dawley rat at 50 mg/kg, po; type: ADME, organism-based; set-up: dose 50 mg/kg, route oral; settings: plasma
[8] = Clearance in beagle dog at 1 mg/kg, iv; type: ADME, organism-based, Canis lupus familiaris; set-up: dose 1 mg/kg, route intravenous; settings: in vivo
[9] = AUC in Sprague-Dawley rat at 1 mg/kg, iv; type: ADME, organism-based; set-up: dose 1 mg/kg, route intravenous; settings: plasma
[10] = Volume of distribution at steady state in beagle dog at 1 mg/kg, iv; type: ADME, organism-based, Canis lupus familiaris; set-up: dose 1 mg/kg, route intravenous; settings: in vivo, read-out: Vdss
[11] = AUC in CD1 mouse at 5 mg/kg, po; type: ADME, organism-based; set-up: dose 5 mg/kg, route oral; settings: plasma
[12] = Cmax in beagle dog at 5 mg/kg, po; type: ADME, organism-based, Canis lupus familiaris; set-up: dose 5 mg/kg, route oral; settings: in vivo
[13] = AUC in beagle dog at 5 mg/kg, po; type: ADME, organism-based, Canis lupus familiaris; set-up: dose 5 mg/kg, route oral; settings: plasma
[14] = Oral bioavailability in beagle dog at 5 mg/kg; type: ADME, organism-based, Canis lupus familiaris; settings: in vivo
HCT-116 [15] = experiment: Induction of mitotic arrest in human HCT116 cells assessed as increase mitosis at 1.6 nM after 24 hrs by propidium iodine staining based FACS analysis; type: functional, cell-based
HCT-116 [16] = experiment: Induction of mitotic arrest in human HCT116 cells assessed as increase in […] spindle formation at 6.25 nM after 16 hrs by propidium iodine staining based FACS analysis; type: functional, cell-based
[17] = Oral bioavailability in CD1 mouse at 5 mg/kg; type: ADME, organism-based; settings: in vivo
[18] = AUC in CD1 mouse at 5 mg/kg, iv; type: ADME, organism-based; set-up: dose 5 mg/kg, route intravenous; settings: plasma
[19] = Cmax in Sprague-Dawley rat at 50 mg/kg, po; type: ADME, organism-based; set-up: dose 50 mg/kg, route oral; settings: in vivo
HCT-116 [20] = experiment: Induction of mitotic arrest in human HCT116 cells assessed as increase in 4N DNA content at 1.6 nM after 16 hrs by propidium iodine staining based FACS analysis; type: functional
[21] = biological target: T1, Kinesin-like protein KIF11 (Homo sapiens, UniProt P52732); experiment: Inhibition of KSP in human HCT116 cells assessed as phos-histone H3 level by immunofluorescent assay; type: cell-based, HCT-116
T1 sequence (P52732 whole entry): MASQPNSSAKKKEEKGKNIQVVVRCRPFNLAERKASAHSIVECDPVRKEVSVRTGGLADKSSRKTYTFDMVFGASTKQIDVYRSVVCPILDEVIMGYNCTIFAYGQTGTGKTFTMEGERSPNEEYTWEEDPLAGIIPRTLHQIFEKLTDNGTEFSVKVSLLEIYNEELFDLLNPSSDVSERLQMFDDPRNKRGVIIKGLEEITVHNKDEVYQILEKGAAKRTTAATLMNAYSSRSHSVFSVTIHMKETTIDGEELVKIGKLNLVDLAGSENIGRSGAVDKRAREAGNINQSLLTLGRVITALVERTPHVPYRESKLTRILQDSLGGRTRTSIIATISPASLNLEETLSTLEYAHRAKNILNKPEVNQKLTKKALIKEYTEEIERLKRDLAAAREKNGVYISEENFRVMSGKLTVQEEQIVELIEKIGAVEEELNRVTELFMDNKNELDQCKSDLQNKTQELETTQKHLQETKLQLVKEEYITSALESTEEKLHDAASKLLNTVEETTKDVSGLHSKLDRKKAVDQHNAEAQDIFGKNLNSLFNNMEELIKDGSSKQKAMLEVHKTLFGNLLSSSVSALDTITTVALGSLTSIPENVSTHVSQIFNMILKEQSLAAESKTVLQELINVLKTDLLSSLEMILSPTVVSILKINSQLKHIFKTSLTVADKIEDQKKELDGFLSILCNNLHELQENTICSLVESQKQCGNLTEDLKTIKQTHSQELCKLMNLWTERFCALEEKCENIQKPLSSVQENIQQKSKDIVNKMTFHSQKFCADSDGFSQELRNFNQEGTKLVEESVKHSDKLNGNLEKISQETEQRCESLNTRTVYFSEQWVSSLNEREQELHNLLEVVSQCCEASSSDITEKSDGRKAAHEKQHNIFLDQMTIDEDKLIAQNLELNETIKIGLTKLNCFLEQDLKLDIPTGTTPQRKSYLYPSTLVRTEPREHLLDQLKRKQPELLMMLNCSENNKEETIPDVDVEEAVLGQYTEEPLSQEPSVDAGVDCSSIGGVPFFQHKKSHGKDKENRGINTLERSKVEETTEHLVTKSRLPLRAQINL

[22] = Cmax in CD1 mouse at 5 mg/kg, po; type: ADME, organism-based; set-up: dose 5 mg/kg, route oral; settings: in vivo
[23] = Clearance in Sprague-Dawley rat at 1 mg/kg, iv; type: ADME, organism-based; set-up: dose 1 mg/kg, route intravenous; settings: in vivo
[24] = Half life in Sprague-Dawley rat at 1 mg/kg, iv; type: ADME, organism-based; set-up: dose 1 mg/kg, route intravenous; settings: in vivo
[25] = Retention time of the compound; type: physicochemical
[26] = Volume of distribution at steady state in CD1 mouse at 5 mg/kg, iv; type: ADME, organism-based; set-up: dose 5 mg/kg, route intravenous; settings: in vivo, read-out: Vdss

SMILES: CC(=O)N1N=C(c2cc(F)ccc2F)SC12CCSc1ccccc12 (stereo unspecified)
EC50 [21]: 3310 nM

SMILES: CC(=O)N1N=C(c2cc(F)ccc2F)SC12CCCOc1ccccc12 (stereo unspecified)
EC50 [21]: > 1000 nM

SMILES: CC(=O)N1N=C(c2cc(F)ccc2F)S[C@@]12c1cc(Cl)ccc1OC[C@H]2CCN
EC50 [21]: 17 nM

Continued by falling EC50 [21], values first:

EC50 [21]: 665 nM
SMILES: COCC(=O)N1N=C(c2cc(F)ccc2F)SC12CCOc1ccccc12 (stereo unspecified)

EC50 [21]: 139 nM
SMILES: CC(=O)N1N=C(c2cc(F)ccc2F)SC12CCOc1ccccc12 (stereo unspecified)

Vd [1]: 8.6 L/kg | bioavailability [2]: 9% | AUC [3]: 3 µM·h | clearance [4]: 90 mL/min/kg | half-life [5]: 1.8 h | half-life [6]: 3.9 h | AUC [7]: 3.6 µM·h | clearance [8]: 13.7 mL/min/kg | AUC [9]: 0.8 µM·h | Vd [10]: 3.9 L/kg | AUC [11]: 0.3 µM·h | Cmax [12]: 300 nM | AUC [13]: 1.4 µM·h | bioavailability [14]: 9% | bioavailability [17]: 12% | AUC [18]: 2.3 µM·h | Cmax [19]: 600 nM | EC50 [21]: 2 nM | Cmax [22]: 100 nM | clearance [23]: 46 mL/min/kg | half-life [24]: 2 h | Retention_time [25]: 4.08 min | Vd [26]: 6.4 L/kg
SMILES: CC(=O)N1N=C(c2cc(F)ccc2F)S[C@@]12c1ccccc1OC[C@H]2CCN
Activity (HCT-116 [15]): Active | Activity (HCT-116 [16]): Active | Activity (HCT-116 [20]): 70%
